The test system of assay [1] is p38. To be noted: murine model of endotoxin-induced shock; cited from earlier work.
The subject of assay [2] is p38. To be noted: mouse collagen-induced arthritis; cited from earlier work.
Assay [3] has as its system p38. The note with it: rat adjuvant arthritis; cited from earlier work.
The target of a further assay is MK-2 (Homo sapiens, UniProt P49137). Put plainly: Determination of MK-2 IC50 (phosphorylation of HSP-peptide, anion exchange resin capture assay). It counts as biochemical. The note with it: additional values are replicate IC50 experiments; mixture of stereoisomers implied unless otherwise noted; read-out: MK-2 Avg. IC50.
A further assay concerns U937 cells. Put plainly: U937 Cell TNFα Release Assay. To be noted: mixture of stereoisomers implied unless otherwise noted. It counts as cell-based, human.
[4] abbreviates: Homo sapiens, U-937, LPS-stimulated differentiated U937 cells, TNFα by ELISA, read-out: TNF Release Assay Avg. IC50.
Setting [5] is: Homo sapiens, U-937, 4 h, LPS-stimulated differentiated U937 cells, TNFα by ELISA, read-out: TNF Release Assay Avg. IC50.

Each structure is given as a SMILES string. Counter-ions that a name gives are not always drawn. Like-named read-outs stand apart in the source and are kept apart here. Some results are limits rather than exact numbers.

Chain of MK-2 (P49137 whole entry, species assumed): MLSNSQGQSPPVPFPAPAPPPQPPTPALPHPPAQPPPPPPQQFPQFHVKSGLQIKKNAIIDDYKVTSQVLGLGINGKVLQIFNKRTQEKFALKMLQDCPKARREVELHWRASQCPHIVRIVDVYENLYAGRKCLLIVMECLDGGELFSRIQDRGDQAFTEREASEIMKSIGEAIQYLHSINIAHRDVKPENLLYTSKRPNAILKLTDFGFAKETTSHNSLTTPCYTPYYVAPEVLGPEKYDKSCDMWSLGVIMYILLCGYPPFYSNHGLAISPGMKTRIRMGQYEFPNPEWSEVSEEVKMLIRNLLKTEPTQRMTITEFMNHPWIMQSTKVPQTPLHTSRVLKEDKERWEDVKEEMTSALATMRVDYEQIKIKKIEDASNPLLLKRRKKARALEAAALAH

As for `C[S+]([O-])c1ccc(-c2nc(-c3ccncc3)c(-c3ccc(F)cc3)[nH]2)cc1` (stereo not drawn) [SB203580], in the assay with p38 [1], the mortality entry is reported as “reduce mortality”. For the same compound, the development of arthritis entry in the assay with p38 [2] and in the assay on p38 [3] was “inhibit the development” each time.
With `COc1ccc2[nH]c3c(=O)n(/N=C/c4ccccc4)c(=O)[nH]c3c2c1` [Example 265, 8-methoxy-3-{[(1E)-phenylmethylidene]amino}-1H-pyrimido[5,4-b]indole-2,4(3H,5H)-dione], the values for the IC50 at MK-2 and with U937 cells (setting [4]) were over 200 µM and over 100 µM, respectively.
Regarding `COc1ccc2[nH]c3c(c2c1)CC(C)(C)NC3C(=O)O` (stereo not drawn) [Example 54, 6-methoxy-3,3-dimethyl-2,3,4,9-tetrahydro-1H-beta-carboline-1-carboxylic acid], the IC50 is 8.39 µM at MK-2 and over 100 µM with U937 cells (setting [5]).
In the same order, the values of `CN(C)C(=O)COc1ccc2[nH]c3c(c2c1)CCNC3C(=O)O` (stereo not drawn) [Example 86, 6-[2-(dimethylamino)-2-oxoethoxy]-2,3,4,9-tetrahydro-1H-beta-carboline-1-carboxylic acid hydrochloride] are 27.7 µM and over 100 µM.
As to `CCCC1CNC(C(=O)OC)c2[nH]c3ccc(OC)cc3c21` (stereo not drawn) [Example 188, methyl 6-methoxy-4-propyl-2,3,4,9-tetrahydro-1H-beta-carboline-1-carboxylate], the figures for the concentration for half-maximal inhibition (IC50) on MK-2 and in the assay on U937 cells (setting [5]) were over 200 µM and 13.3 µM, respectively.
The corresponding values for `COc1ccc2[nH]c3c(c2c1)CCNC3c1nnn[nH]1` (stereo not drawn) [Example 143, 6-methoxy-1-(1H-tetraazol-5-yl)-2,3,4,9-tetrahydro-1H-beta-carboline trifluoroacetate hydrate] are 127 µM and at least 100 µM.
Regarding `COc1ccc2[nH]c3c(c2c1)CCCCC3=NO` [Example 49], the concentration for half-maximal inhibition (IC50) is 6.9 µM at MK-2 and 2.89 µM with U937 cells (setting [4]).
The corresponding values for `COc1ccc2[nH]c3c(c2c1)CC(CCCNCCCc1ccccc1)NC3=O` (stereo not drawn) [Example 27, 6-methoxy-3-{3-[(3-phenylpropyl)amino]propyl}-2,3,4,9-tetrahydro-1H-beta-carbolin-1-one trifluoroacetate] are 3.24 µM and 8.54 µM.
`COc1ccc2[nH]c3c(c2c1)CC(CCCN)NC3=O` (stereo not drawn) [Example 38, 3-(3-aminopropyl)-6-methoxy-2,3,4,9-tetrahydro-1H-beta-carbolin-1-one trifluoroacetate]: the values for the 50% inhibitory concentration (IC50) at MK-2 and in the assay with U937 cells (setting [4]) were 5.5 µM and 36.7 µM, respectively.
In the same order, the values of `COc1ccc2[nH]c3c(=O)n(N)c(=O)[nH]c3c2c1` [Example 266, 3-amino-8-methoxy-1H-pyrimido[5,4-b]indole-2,4(3H,5H)-dione] are over 200 µM and over 100 µM.
Regarding `COC(=O)COc1ccc2[nH]c3c(c2c1)CCNC3C(=O)O` (stereo not drawn) [Example 70, 6-(2-methoxy-2-oxoethoxy)-2,3,4,9-tetrahydro-1H-beta-carboline-1-carboxylic acid trifluoroacetate hydrate], the IC50 at MK-2 was 15.3 µM; in the assay with U937 cells (setting [5]), over 100 µM.
For `COC(=O)C(Oc1ccc2[nH]c3c(c2c1)CCNC3C(=O)O)c1ccccc1` (stereo not drawn) [Example 57, 6-(2-methoxy-2-oxo-1-phenylethoxy)-2,3,4,9-tetrahydro-1H-beta-carboline-1-carboxylic acid], the IC50 on MK-2 amounted to 9.45 µM; in the assay with U937 cells (setting [5]) it was 97.3 µM.
In the same order, the values of `O=C(O)C1NCCc2c1[nH]c1ccc(OCCCCCl)cc21` (stereo not drawn) [Example 79, 6-(4-chlorobutoxy)-2,3,4,9-tetrahydro-1H-beta-carboline-1-carboxylic acid hydrochloride] are 17.4 µM and over 100 µM.
Turning to `COc1ccc2[nH]c3c(c2c1)CCC/C3=N/O` [Example 25, (1Z)-6-methoxy-2,3,4,9-tetrahydro-1H-carbazol-1-one oxime], the figures for the 50% inhibitory concentration (IC50) on MK-2 and in the assay on U937 cells (setting [4]) were 3.1 µM and 2.18 µM, respectively.
As to `O=C(O)C1NCCc2c1[nH]c1ccc(OCc3ccccc3Cl)cc21` (stereo not drawn) [Example 72, 6-[(2-chlorobenzyl)oxy]-2,3,4,9-tetrahydro-1H-beta-carboline-1-carboxylic acid trifluoroacetate], the IC50 at MK-2 is 15.5 µM; in the assay on U937 cells (setting [5]), 7.68 µM.
In the same order, the values of `COc1ccc2[nH]c3c(c2c1)C(C)(C)CNC3C(=O)O` (stereo not drawn) [Example 73, 6-methoxy-4,4-dimethyl-2,3,4,9-tetrahydro-1H-beta-carboline-1-carboxylic acid] are 15.8 µM and over 100 µM.
As for `COc1ccc2[nH]c3c(c2c1)CCC/C3=N\O` (single isomer, unassigned) [Example 75, 6-methoxy-2,3,4,9-tetrahydro-1H-carbazol-1-one oxime], the half-inhibitory concentration (IC50) turned out to be 16.5 µM at MK-2 and 13.9 µM in the assay with U937 cells (setting [4]).
For `O=C(O)C1c2[nH]c3ccccc3c2CCN1C(=O)c1ccc(Cl)cc1` (stereo not drawn) [Example 202, 2-(4-chlorobenzeyl)-2,3,4,9-tetrahydro-1H-beta-carboline-1-carboxylic acid], the IC50 at MK-2 was over 200 µM; in the assay on U937 cells (setting [5]), over 100 µM.
Consider `CCn1c2c(c3cc(OC)ccc31)CCNC2C(=O)OC` (stereo not drawn) [Example 208, methyl 9-ethyl-6-methoxy-2,3,4,9-tetrahydro-1H-beta-carboline-1-carboxylate trifluoroacetate], for which the IC50 is over 200 µM on MK-2 and 100 µM in the assay with U937 cells (setting [5]).
In the same order, the values of `COc1ccc2[nH]c3c(c2c1)C(C(F)(F)F)CNC3C(=O)O` (stereo not drawn) [Example 66, 6-methoxy-4-(trifluoromethyl)-2,3,4,9-tetrahydro-1H-beta-carboline-1-carboxylic acid] are 13.8 µM and 41.3 µM.
As to `COc1ccc2[nH]c3c(c2c1)CC(CCCNCCc1ccccc1)NC3=O` (stereo not drawn) [Example 18, trifluoroacetate], the IC50 on MK-2 was 2.03 µM; in the assay with U937 cells (Homo sapiens, U-937, read-out: TNF Release Assay Avg. IC50, LPS-stimulated differentiated U937 cells, TNFα by ELISA), 23.7 µM.
Turning to `O=C(O)C1NCCc2c1[nH]c1ccc(OCc3ccncc3)cc21` (stereo not drawn) [Example 85, 6-(pyridin-4-ylmethoxy)-2,3,4,9-tetrahydro-1H-beta-carboline-1-carboxylic acid hydrochloride], the half-maximal inhibitory concentration (IC50) at MK-2 came to 25.8 µM; in the assay with U937 cells (setting [5]), 48.4 µM.
Take `CCCC1CNC(C(=O)O)c2[nH]c3ccc(OC)cc3c21` (stereo not drawn) [Example 55, 6-methoxy-4-propyl-2,3,4,9-tetrahydro-1H-beta-carboline-1-carboxylic acid]: the IC50 was 8.47 µM at MK-2 and over 100 µM in the assay with U937 cells (Homo sapiens, U-937, 4 h, read-out: TNF Release Assay Avg. IC50, LPS-stimulated differentiated U937 cells, TNFα by ELISA).
For the compound `COC(=O)C1c2[nH]c3ccc(O)cc3c2CCN1C` (stereo not drawn) [Example 129, methyl 6-hydroxy-2-methyl-2,3,4,9-tetrahydro-1H-beta-carboline-1-carboxylate], the 50% inhibitory concentration (IC50) stood at 98.7 µM at MK-2 and 0.523 µM in the assay with U937 cells (read-out: TNF Release Assay Avg. IC50, LPS-stimulated differentiated U937 cells, TNFα by ELISA).
On to `COc1ccc2[nH]c3c(c2c1)CCC(C)/C3=N/N` (stereo not drawn) [Example 134, 6-methoxy-2-methyl-2,3,4,9-tetrahydro-1H-carbazol-1-one hydrazone], for which the IC50 was 108 µM on MK-2 and 7.33 µM in the assay with U937 cells (setting [4]).

Source of the values: patent US20050137220A1 (Pharmacia Corporation, priority 2003, published 2005).
